From article PMC6099102, “Effect of the Nature of Donor Atoms on the Thermodynamic, Kinetic and Relaxation Properties of Mn(II) Complexes Formed With Some Trisubstituted 12-Membered Macrocyclic Ligands” (Frontiers in Chemistry, 2018)

Experiment: Stability and protonation constants and pMn of the Mn(II) complexes (pH-potentiometry and/or 1H relaxometry)
Format: physicochemical
Conditions: I = 0.15 M NaCl, 25 °C; for pMn: calculated at pH = 7.4, cM = cL = 10^−5 M; for log KMLH: protonation constant of the Mn(II) complex
Experimental: The concentration of the ligand solutions was determined by pH-potentiometric titration in the presence and absence of an excess (5–10 fold) of MnCl2. For determining the protonation constants of the investigated ligands, pH-potentiometric titrations were made by means of 0.2 M standardized NaOH in 2 and 3 mM ligand solutions in the pH-range of 1.75–11.85. All equilibrium measurements were performed at a constant 0.15 M NaCl ionic strength at 25 °C. The protonation and the stability constants of the Mn(II) complexes were determined by pH-potentiometric titrations (DOTP, DO3A, PCTA, ODO3A, DO3P) while owing to the slow formation rates of Mn(II) complexes formed with amide type ligands, the stability constants of DOTAM, DOTMA, DO3AM^H, PC3AM^H, PC3AM^Gly, PC3AM^Pip complexes were determined by out-of-cell pH-potentiomertry in combination with ^1H relaxometry. The metal-to-ligand concentration ratio in the solutions was 1:1. For the calculation of protonation constants of the ligands and the log KMnL and log KMnLHi values of the complexes, mL–pH data pairs (50–180), obtained in the pH range of 1.75–11.85 or r1obs-pH data pairs (10–15 batch samples) obtained in the pH range of 2–4.5 were used (the samples were equilibrated for 4–7 days). The equilibrium constants characterizing the deprotonation that occurs at basic pH were determined from the data obtained via direct pH-potentiometric titrations performed on the pre-formed complexes.
The pH-potentiometric titrations were carried out with a Methrohm 888 Titrando titration workstation using a Metrohm-6.0233.100 combined electrode. The samples (6.00 mL) were thermostated at 25 °C. The samples were stirred and kept under inert gas (N2) to avoid the effect of CO2. KH-phthalate (pH = 4.005) and borax (pH = 9.177) buffers were used for the pH-calibration. The method proposed by Irving et al. was used for the calculation of H^+ concentrations from the measured pH values (Irving et al., [1967]). A 0.01 M HCl (I = 0.15 M set with NaCl) solution was titrated with standardized NaOH solution of known concentration (approx. 0.2 M). The correction factor obtained as difference of calculated pH and measured pH values was used to calculate the [H^+] in the samples. The ionic product of water was determined from the same titrations (HCl/NaOH) from the data collected in the pH range of 11.20–11.85.
The relaxometric data were collected using a Bruker Minispec MQ20 NMR relaxometer. […] A datapoint plotted on figures represents an average of 5–6 T1 measurements (Figures S3–S9 in Supplementary Material). The data were fitted by using the molar r1p relaxivity value of the MnCl2 ([…] at 0.49 T and 25 °C). The equilibrium constants were calculated using the PSEQUAD program (Zékány and Nagypál, [1985]).
In order to gain information on the thermodynamic stability of the Mn(II) complexes, samples containing the metal and ligand in 1 to 1 molar ratio were studied by pH potentiometry or ^1H-relaxometry and in some cases by a combination of the two methods. The titration data were fitted by assuming the existence of [M(L)] and some protonated species ([M(HiL)]) at lower pH values. In some cases to fit the data obtained at higher pH, the formation of ternary hydroxido complexes ([M(L)(OH)]) were also included in the equilibrium model. The stability constants (KML) and the various protonation forms (KMHiL) of ML metal chelates are defined by Equations (3)–(5). However, a comparison of the stabilities of different complexes solely on the basic of their stability constants might be misleading because of the differences in ligand basicities. […] The pMn value accounts for the effect of proton competition (ligand basicity and complex protonation) on the stability constant essentially offering the same information as the conditional stability constant. Higher pMn values indicate a higher chelate stability at specified conditions. […]

[1] = stability constant of the Mn(II) complex
[2] = stability constant of the Mn(II) complex by 1H-relaxometry

Row | Structure (SMILES) | pMn | log KMLH | log KML [1] | log KMHLH (second protonation constant of the Mn(II) complex) | log KMH2LH (third protonation constant of the Mn(II) complex) | log KML [2] | log KMLOH (ternary hydroxido complex of Mn(II))
1 | O=C(O)CN1CCNCCN(CC(=O)O)CCN(CC(=O)O)CC1 [DO3A] | 8.66 | 4.26 (2) | 16.55 (4) |  |  |  | 
2 | O=P(O)(O)CN1CCNCCN(CP(=O)(O)O)CCN(CP(=O)(O)O)CC1 [DO3P] | 6.43 | 8.06 (2) | 17.45 (2) | 7.05 (1) | 5.31 (2) |  | 

Results, then the molecule that gave them:

Row | pMn | log KMLH | log KML [1] | log KMHLH (second protonation constant of the Mn(II) complex) | log KMH2LH (third protonation constant of the Mn(II) complex) | log KML [2] | log KMLOH (ternary hydroxido complex of Mn(II)) | Structure (SMILES)
3 | 7.77 |  | 11.94(3) |  |  | 11.78 (8) | 10.90 (4) | NC(=O)CN1CCN(CC(N)=O)Cc2cccc(n2)CN(CC(N)=O)CC1 [PC3AM^H]
4 | 9.74 | 1.96(1) | 16.83 (1) |  |  | 16.64 (7) |  | O=C(O)CN1CCN(CC(=O)O)Cc2cccc(n2)CN(CC(=O)O)CC1 [PCTA]
5 | 8.86 |  |  |  |  |  |  | O=C(CN1CCN(CC(=O)N2CCCCC2)Cc2cccc(n2)CN(CC(=O)N2CCCCC2)CC1)N1CCCCC1.[Mn+2] [[Mn(PC3AM^Pip)]^2+]
